The test addresses T1, Aromatase [1-48] (Homo sapiens, UniProt P11511).
T1 construct: 1-48
T1 sequence (P11511 whole entry): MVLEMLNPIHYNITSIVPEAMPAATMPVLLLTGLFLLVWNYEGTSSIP
In words: Biological Assay. The protocol:
The inhibitory activities of the compounds toward aromatase were determined in vitro using human placental microsomes and [1,2,6,7-3H]-androstenedione.
The term IC50 denotes the concentration that inhibits the measured activity by half. Higher therefore signals weaker potency in that assay. `COc1ccc2c(c1)OC(c1ccc(Cl)cc1)CC2n1ccnc1` (trans isomer) [2,4-Trans-4'-chloro-4-imidazolyl-7-methoxyflavan, 3b] returned an IC50 of 200 nM.

`COc1ccc2c(c1)OC(c1cccc(O)c1)CC2n1ccnc1` (stereo not drawn) [2,4-Trans-3'-hydroxy-4-imidazolyl-7-methoxyflavan, 3a] displayed an IC50 of 130 nM.

`Oc1ccc(C2CC(n3ccnc3)c3ccc(O)cc3O2)cc1` (stereo not drawn) [2,4-Trans-4',7-dihydroxy-4-imidazolyl-7-methoxyflavan, 3e] showed an IC50 of 77 nM.

The molecule `COc1ccc2c(c1)OC(c1ccc(C#N)cc1)CC2n1ccnc1` (stereo not drawn) [2,4-Trans-4'-cyano-4-imidazolyl-7-methoxyflavan, 3c] gave an IC50 of 133 nM.

In turn, `COc1ccc2c(c1)OC(c1ccc(O)cc1)CC2n1ccnc1` (stereo not drawn) [2,4-Trans-4'-hydroxy-4-imidazolyl-7-methoxyflavan, 3d] gave an IC50 of 40 nM.

These data come from BindingDB's records for doi:10.1016/j.bioorg.2004.06.008 (BiomolÉCules Et Cibles Cellulaires Tumorales, 2004).
